Reference: patent US20250345276A1, “O/W-EMULSIONS COMPRISING SEMIFLUORINATED ALKANES” (NOVALIQ GMBH, priority 2011, published 2025)

Key:
[1] = system: Pseudomonas aeruginosa (ATCC 9027); test: antimicrobial preservative effectiveness test in analogy to USP 32 <51>; format: cell-based; details: P. aeruginosa; for cfu/mL 0 h: 0 h after inoculation; for cfu/mL 0 h / cfu/mL 24 h / cfu/mL 48 h: approx. 22.5° C.
Protocol: (§1) An antimicrobial preservative effectiveness test in analogy to that of USP 32 <51>was carried out. Sample vials prepared according to Examples 1, 3 and 4 were inoculated with Escherichia coli, Pseudomonas aeruginosa, Staphylococcus aureus, Candida albicans and Aspergillus niger and incubated at approx. 22.5° C. Commercially obtained samples of Disoprivan® were tested as comparators.
(§2) To determine whether the observed inhibition of microbial growth in the emulsions of the invention is an effect of the semifluorinated alkanes or the propofol, the test was repeated with a placebo emulsion containing no propofol, but only F6H8 in a higher concentration (40 wt.-%) and S75 in dextrose solution. Also tested were pure solutions of F6H8 and F4H5.

[2] = system: Candida albicans (ATCC 10231); test: as above; format: cell-based; details: C. albicans; for cfu/mL 0 h: 0 h after inoculation; for cfu/mL 0 h / cfu/mL 24 h / cfu/mL 48 h: approx. 22.5° C.
Protocol: as §1, §2

[3] = system: Staphylococcus aureus (ATCC 6538); test: as above; format: cell-based; details: S. aureus; for cfu/mL 0 h: 0 h after inoculation; for cfu/mL 0 h / cfu/mL 24 h / cfu/mL 48 h: approx. 22.5° C.
Protocol: as §1, §2

[4] = miscibility of propofol with semifluorinated alkanes; format: physicochemical; details: over a wide temperature range
Description: By virtue of the high solubility of propofol in semifluorinated alkanes, it is now possible to provide injectable propofol formulations having a high strength (or concentration of propofol), and thus require only a low volume of administration. This will also bring about an improved tolerability, since a lower administration volume inherently means a lower intake of excipients (such as emulsifiers).

[5] = system: Aspergillus niger (ATCC 16404); test: antimicrobial preservative effectiveness test in analogy to USP 32 <51>; format: cell-based; details: A. niger; for cfu/mL 0 h: 0 h after inoculation; for cfu/mL 0 h / cfu/mL 24 h / cfu/mL 48 h: approx. 22.5° C.
Protocol: as §1, with “comparators. […]” for “comparators.”

[6] = system: Escherichia coli (ATCC 8739); test: as above; format: cell-based; details: E. coli; for cfu/mL 0 h: 0 h after inoculation; for cfu/mL 0 h / cfu/mL 24 h / cfu/mL 48 h: approx. 22.5° C.
Protocol: as §1, with “comparators. […]” for “comparators.”

[7] = hydroxyl group; cited from earlier work

SMILES | cfu/mL 0 h [1] | Change in log steps 24 h [1] [log steps] | cfu/mL 24 h [1] [cfu/mL] | Change in log steps 48 h [1] [log steps] | cfu/mL 48 h [1] [cfu/mL] | cfu/mL 0 h [2] | Change in log steps 24 h [2] [log steps] | cfu/mL 24 h [2] [cfu/mL] | Change in log steps 48 h [2] [log steps] | cfu/mL 48 h [2] [cfu/mL] | cfu/mL 0 h [3] | Change in log steps 24 h [3] [log steps] | cfu/mL 24 h [3] [cfu/mL] | Change in log steps 48 h [3] [log steps] | cfu/mL 48 h [3] [cfu/mL] | miscibility of propofol with the semifluorinated alkane [4] | cfu/mL 0 h [5] | Change in log steps 24 h [5] [log steps] | cfu/mL 24 h [5] [cfu/mL] | Change in log steps 48 h [5] [log steps] | other results
CCCCCC(F)(F)C(F)(F)C(F)(F)C(F)(F)F [Example F4H5] | 1 600 cfu/mL | ≤-1.2 | <100 | ≤-1.2 | <100 | 1 500 cfu/mL | ≤-1.2 | <100 | ≤-1.1 | <100 | 2 900 cfu/mL | ≤-1.4 | <100 | ≤-1.4 | <100 | fully miscible | 3 000 cfu/mL | ≤-1.4 | <100 | ≤-1.2 | cfu/mL 48 h [5]: <100 cfu/mL; Change in log steps 6 d [5]: ≤-1.2 log steps; cfu/mL 6 d [5]: <100 cfu/mL; cfu/mL 0 h [6]: 1 600 cfu/mL; Change in log steps 24 h [6]: ≤-1.2 log steps; cfu/mL 24 h [6]: <100 cfu/mL; Change in log steps 48 h [6]: ≤-1.2 log steps; cfu/mL 48 h [6]: <100 cfu/mL
CCCCCCC(F)(F)C(F)(F)C(F)(F)C(F)(F)F [Example F4H6] | – | – | – | – | – | – | – | – | – | – | – | – | – | – | – | fully miscible | – | – | – | – | –
CCCCCCCCC(F)(F)C(F)(F)C(F)(F)C(F)(F)C(F)(F)C(F)(F)F [Example F6H8] | 1 600 cfu/mL | ≤-1.2 | <100 | ≤-1.2 | <100 | 1 500 cfu/mL | ≤-1.2 | <100 | ≤-1.1 | <100 | 2 900 cfu/mL | ≤-1.4 | <100 | ≤-1.4 | <100 | fully miscible | 1 500 cfu/mL | ≤-1.2 | <100 | ≤-1.2 | cfu/mL 48 h [5]: <100 cfu/mL; Change in log steps 6 d [5]: ≤-1.2 log steps; cfu/mL 6 d [5]: <100 cfu/mL; cfu/mL 0 h [6]: 1 600 cfu/mL; Change in log steps 24 h [6]: ≤-1.2 log steps; cfu/mL 24 h [6]: <100 cfu/mL; Change in log steps 48 h [6]: ≤-1.2 log steps; cfu/mL 48 h [6]: <100 cfu/mL
CC(C)c1cccc(C(C)C)c1O [propofol, 2,6-diisopropylphenol] | – | – | – | – | – | – | – | – | – | – | – | – | – | – | – | – | – | – | – | – | pKa [7]: 11
